According to patent US20260308172A1, “TRICYCLIC COMPOUNDS FOR TREATMENT OF BACTERIAL INFECTIONS” (priority 2023, published 2026):
Values after ≈ are worked out from the molar mass of the structure shown.

What was measured:
[1] = system: Escherichia coli ATCC 25922; assay: Minimal Inhibitory Concentration (MIC) assay, Escherichia coli ATCC 25922; type: cell-based; details: ATCC25922, 20 h, read-out: MIC Escherichia coli ATCC25922
Protocol: (§1) The antibacterial activity of the compounds of the present invention was evaluated against the commonly used quality control strain Escherichia coli ATCC 25922 and the rifampin-resistant mutant strain Klebsiella pneumonia ATCC 43816. Both were originally derived from human clinical samples and are available from ATCC (American Type Culture Collection). The in vitro potency of compounds to inhibit Escherichia coli (ATCC 25922) and Klebsiella pneumonia (ATCC 43816) growth was assessed by the MIC (Minimal Inhibitory Concentration) broth dilution method. Specifically compound dilutions were prepared from 10 mM DMSO stock solutions as follows: i) serial 2-fold dilution in 20 μL DMSO were prepared in a master plate (Greiner, Cat No: 651201), ii) 180 μL sterile distilled water was added to each aliquot and iii) 10 μL diluted compounds were transferred into a new assay plate (Costar, 3599).
(§2) Vials of each test microorganisms were maintained frozen in the vapor phase of a liquid nitrogen freezer. Single-use frozen vials of the two strains Escherichia coli ATCC 25922 (KWIKSTIK, 0335K) and Klebsiella pneumonia ATCC 43816, with predetermined CFU/mL, were taken out from the freezer, thawed at room temperature, and diluted in Cation-Adjusted Mueller Hinton Broth (CAMHB) to achieve a final inoculum of 5×10^5 CFU/mL. 90 μL bacteria containing broth was dispensed to the assay plate containing the pre-dispensed compound dilutions and mixed by pipetting 5 times.
(§3) Then the assay plates were incubated for 20 hours at 35° C. in ambient air. Following incubation, the MIC (μg/mL), the lowest concentration of drug that inhibits visible growth of the microorganism was read with the help of a magnification mirror and recorded.

[2] = system: Klebsiella pneumonia ATCC 43816; assay: Minimal Inhibitory Concentration (MIC) assay, Klebsiella pneumonia ATCC 43816; type: cell-based; details: Klebsiella pneumoniae, ATCC43816, 20 h, read-out: MIC Klebsiella pneumoniae ATCC43816
Protocol: as §1, §2, §3

SMILES: O=C1O[C@H](CO)[C@@H]2COc3cc(S(=O)(=O)N4CCN(c5cc(C(F)(F)[C@H]6CNCCO6)cc(Cl)n5)CC4)ccc3N12 (stereo in doubt) [Example 032, cis-7-[4-[6-chloro-4-[difluoro-[(2R)-morpholin-2-yl]methyl]-2-pyridyl]piperazin-1-yl]sulfonyl-3-(hydroxymethyl)-3a,4-dihydro-3H-oxazolo[4,3-c][1,4]benzoxazin-1-one]
- MIC [1]: 0.24 µg/mL (≈ 0.39 µM)
- MIC [2]: 0.241 µg/mL (≈ 0.391 µM)

SMILES: NC1CC(=O)N2c3ccc(S(=O)(=O)N4CCN(c5cc(C(F)(F)C6COCCO6)cc(Cl)n5)CC4)cc3OCC12 (stereo not drawn) [Example 008, 3-Amino-7-[4-[6-chloro-4-[1,4-dioxan-2-yl(difluoro)methyl]-2-pyridyl]piperazin-1-yl]sulfonyl-2,3,3a,4-tetrahydropyrrolo[2,1-c][1,4]benzoxazin-1-one]
- MIC [1]: 0.5 µg/mL (≈ 0.833 µM)
- MIC [2]: 0.5 µg/mL (≈ 0.833 µM)

SMILES: Cc1cc(C(F)(F)F)nc(N2CCN(S(=O)(=O)c3ccc4c(c3)OCC3CCC(=O)N43)CC2)n1 (stereo not drawn) [Example 011, 7-[4-[4-Methyl-6-(trifluoromethyl)pyrimidin-2-yl]piperazin-1-yl]sulfonyl-2,3,3a,4-tetrahydropyrrolo[2,1-c][1,4]benzoxazin-1-one]
- MIC [1]: 1.4 µg/mL (≈ 2.81 µM)
- MIC [2]: 2.87 µg/mL (≈ 5.77 µM)

SMILES: Nc1ccc(S(=O)(=O)c2cc(Cl)nc(N3CCN(S(=O)(=O)c4ccc5c(c4)OCC4CCC(=O)N54)CC3)c2)cc1 (stereo not drawn) [Example 013, 7-[4-[4-(4-Aminophenyl)sulfonyl-6-chloro-2-pyridyl]piperazin-1-yl]sulfonyl-2,3,3a,4-tetrahydropyrrolo[2,1-c][1,4]benzoxazin-1-one]
- MIC [1]: 0.47 µg/mL (≈ 0.778 µM)
- MIC [2]: 0.24 µg/mL (≈ 0.397 µM)

SMILES: Nc1ccc(S(=O)(=O)c2cc(Br)nc(N3CCN(S(=O)(=O)c4ccc5c(c4)OCC4CCC(=O)N54)CC3)c2)cc1 (stereo not drawn) [Example 014, 7-[4-[4-(4-Aminophenyl)sulfonyl-6-bromo-2-pyridyl]piperazin-1-yl]sulfonyl-2,3,3a,4-tetrahydropyrrolo[2,1-c][1,4]benzoxazin-1-one]
- MIC [1]: 0.51 µg/mL (≈ 0.786 µM)
- MIC [2]: 0.51 µg/mL (≈ 0.786 µM)

SMILES: Cc1cc(C(F)(F)F)nc(N2CCN(S(=O)(=O)c3ccc4c(c3)OC[C@@H]3[C@H](CO)OC(=O)N43)CC2)n1 [Example 015, (3R,3aR)-3-(hydroxymethyl)-7-[4-[4-methyl-6-(trifluoromethyl)pyrimidin-2-yl]piperazin-1-yl]sulfonyl-3a,4-dihydro-3H-oxazolo[4,3-c][1,4]benzoxazin-1-one]
- MIC [1]: 0.5 µg/mL (≈ 0.944 µM)
- MIC [2]: 0.76 µg/mL (≈ 1.44 µM)

SMILES: CN1CCC(C(F)(F)c2cc(Cl)nc(N3CCN(S(=O)(=O)c4ccc5c(c4)OCC4CCC(=O)N54)CC3)c2)CC1 (stereo not drawn) [Example 016, 7-[4-[6-Chloro-4-[difluoro-(1-methyl-4-piperidyl)methyl]-2-pyridyl]piperazin-1-yl]sulfonyl-2,3,3a,4-tetrahydropyrrolo[2,1-c][1,4]benzoxazin-1-one]
- MIC [1]: 1.9 µg/mL (≈ 3.19 µM)
- MIC [2]: 1.86 µg/mL (≈ 3.12 µM)

SMILES: NC[C@H]1OC(=O)N2c3ccc(S(=O)(=O)N4CCN(c5cc(C(F)(F)[C@@H]6COCCO6)cc(Cl)n5)CC4)cc3OC[C@@H]12 [Example 021, (3R,3aS)-3-(Aminomethyl)-7-[4-[6-chloro-4-[[(2S)-1,4-dioxan-2-yl]-difluoro-methyl]-2-pyridyl]piperazin-1-yl]sulfonyl-3a,4-dihydro-3H-oxazolo[4,3-c][1,4]benzoxazin-1-one]
- MIC [1]: 0.26 µg/mL (≈ 0.422 µM)
- MIC [2]: 0.51 µg/mL (≈ 0.828 µM)

SMILES: NC[C@@H]1OC(=O)N2c3ccc(S(=O)(=O)N4CCN(c5cc(C(F)(F)[C@@H]6COCCO6)cc(Cl)n5)CC4)cc3OC[C@H]12 [Example 022, (3S,3aR)-3-(aminomethyl)-7-[4-[6-chloro-4-[[(2S)-1,4-dioxan-2-yl]-difluoro-methyl]-2-pyridyl]piperazin-1-yl]sulfonyl-3a,4-dihydro-3H-oxazolo[4,3-c][1,4]benzoxazin-1-one]
- MIC [1]: 0.44 µg/mL (≈ 0.714 µM)
- MIC [2]: 0.3 µg/mL (≈ 0.487 µM)
